Source: patent publication US20160113936A1, “METHODS FOR MODULATING MONOCYTE FUNCTION” (Georgia Regents Research Institute, Inc., priority 2014, published 2016)

Experiments:
[1] = tested on: Hsp90 derived from transformed cells overexpressing HER-2; details: cited from earlier work
[2] = tested on: NCI 60-cell panel; details: read-out: Growth Inhibition of 50% (GI50); cited from earlier work
[3] = tested on: non-tumor cells; details: cited from earlier work
[4] = tested on: monocytic THP-1 cells; assay: HSP70 protein levels in monocytic THP-1 cells (autoradiograph, FIG. 1); format: cell-based; details: β-actin as standard
Source text: FIG. 1 is an autoradiograph showing HSP70 levels in monocytic THP-1 cells treated with NVP-AUY922 or 17-DMAG. β-actin levels are shown as a standard.

[5] = in vivo; cited from earlier work
[6] = cited from earlier work
[7] = biological target: human Hsp90α (Homo sapiens, UniProt P07900); details: cited from earlier work
[8] = tested on: monocytic THP-1 cells; assay: Pro-inflammatory cytokine gene expression by qRT-PCR (Table 1); format: cell-based; details: Control 1.0
Experimental: The major pro-inflammatory cytokines that are responsible for early inflammatory responses include IL1-α, IL1-β, IL-6, and TNF-α. […] Inflammatory cytokines and tissue factor gene expression were evaluated using quantitative real-time polymerase chain reaction (qRT-PCR). Amount of tissue factor was determined using a one stage clotting assay calibrated against a known amount of tissue factor (INNOVIN).

[9] = tested on: monocytic THP-1 cells; assay: Pro-inflammatory cytokine protein expression (Table 1); format: cell-based; details: for IL-6 Protein Expression: Control 7.40; for IL-10 Protein Expression: Control 9.89; for IL-1β Protein Expression: Control 15.24; for IL-8 Protein Expression: Control 110.44; for TNF-α Protein Expression: Control 1611.19
[10] = tested on: mice with SCD; assay: LPS challenge in Townes sickle cell (SS) and AA mice treated with AUY922; format: in vivo, mouse
Experimental: FIG. 4 is a schematic diagram of an experimental procedure for assaying HSP90 inhibitors for the treatment SCD.
FIG. 5A is a bar graph of HSP70/GAPDH (relative units) for mice treated with phosphate buffered saline (PBS) or AUY922 (25 mg/Kg B.W.) daily for four days. FIG. 5B is a bar graph of HSP70/GAPDH (relative units) for mice treated with 0.1 μg/g B.W. of LPS or 0.1 μg/g B.W. of LPS plus AUY922 (25 mg/Kg B.W.).
Cytokine (ng/ml) for AA or SS mice treated with control, AUY, LPS, or LPS+AUY is shown.
Mouse Phenotype: B6;129-Hba^tm1(HBA)Tow Hbb^tm2(HBG1,HBB*)Tow/Hbb^tm3(HBG1,HBB)Tow/J
Entire Mouse Globin Locus Removed and Replace by Human Hemoglobin S or A.
AA, SS, & SA mice are available.

[11] = preclinical data; cited from earlier work
[12] = tested on: Hsp70; details: cited from earlier work

C=CCNC1=C2C[C@@H](C)C[C@H](OC)[C@H](O)[C@@H](C)/C=C(\C)[C@H](OC(N)=O)[C@@H](OC)/C=C\C=C(/C)C(=O)NC(=CC1=O)C2=O [17-AAG, 17-allylamino-17-demethoxygeldanamycin]
IC50 ([1]; Hsp90 from HER-2 overexpressing cells (BT474, N87, SKOV3, SKBR3) or BT474 breast carcinoma cells, read-out: 1050 values): 5 to 6 nM
higher affinity for Hsp90 derived from transformed cells ([1]; transformed cells overexpressing HER-2, comparator not printed (non-tumor cells are named just before)): more than 100 ×
GI50 [2]: 120 nM
toxicity toward non-tumor cells [3]: low toxicity

CO[C@H]1/C=C\C=C(/C)C(=O)NC2=CC(=O)C(NCCN(C)C)=C(C[C@@H](C)C[C@H](OC)[C@H](O)[C@@H](C)/C=C(\C)[C@@H]1OC(N)=O)C2=O [17-DMAG, 17-Dimethylaminoethylamino-17-demethoxygeldanamycin]
HSP70 protein levels [4]: increases HSP70 protein levels
GI50 [2]: 51 nM
bioavailability [5]: excellent bioavailability
water solubility [6]: water-soluble
binding to ATPase site of human Hsp90α [7]: high affinity

CCNC(=O)c1noc(-c2cc(C(C)C)c(O)cc2O)c1-c1ccc(CN2CCOCC2)cc1 [AUY922, 5-(2,4-dihydroxy-5-isopropylphenyl)-N-ethyl-4-(4-(morpholinomethyl)phenyl)isoxazole-3-carboxamide]
HSP70 protein levels [4]: increases HSP70 protein levels
IL-1β Gene Expression (Fold) ([8]; AUY922 alone): 0.9 Fold
IL-6 Gene Expression (Fold) ([8]; AUY922 alone): 1.2 Fold
IL-8 Gene Expression (Fold) ([8]; AUY922 alone): 1.0 Fold
IL-10 Gene Expression (Fold) ([8]; AUY922 alone): 30.2 Fold
TNF-α Gene Expression (Fold) ([8]; AUY922 alone): 0.8 Fold
TNF-α Gene Expression (Fold) ([8]; LPS + AUY922, LPS alone 7.1): 6.2 Fold
IL-6 Gene Expression (Fold) ([8]; LPS + AUY922, LPS alone 42.5): 3.25 Fold
IL-8 Gene Expression (Fold) ([8]; LPS + AUY922, LPS alone 235.5): 795.5 Fold
IL-10 Gene Expression (Fold) ([8]; LPS + AUY922, LPS alone 350.4): 200.1 Fold
IL-1β Gene Expression (Fold) ([8]; LPS + AUY922, LPS alone 1950): 20 Fold
IL-6 Protein Expression ([9]; AUY922 alone): 7.10
IL-10 Protein Expression ([9]; AUY922 alone): 4.20
IL-1β Protein Expression ([9]; AUY922 alone): 14.24
IL-8 Protein Expression ([9]; AUY922 alone): 130.61
TNF-α Protein Expression ([9]; AUY922 alone): 1437.12
IL-10 Protein Expression ([9]; LPS + AUY922, LPS alone 41.18): 2.95
IL-6 Protein Expression ([9]; LPS + AUY922, LPS alone 156.51): 6.80
IL-1β Protein Expression ([9]; LPS + AUY922, LPS alone 775.64): 14.57
IL-8 Protein Expression ([9]; LPS + AUY922, LPS alone 839.99): 117.87
TNF-α Protein Expression ([9]; LPS + AUY922, LPS alone 4391.73): 1587.49
inflammation in in vivo model system for SCD ([10]; SS mice): significant decrease in inflammation
plasma levels of Il-1-Beta ([10]; SS mice): reduces plasma levels
plasma levels of TNF-alpha ([10]; SS mice): reduces plasma levels
LPS-induced Il-6 response ([10]; mice with SCD): ablates the profound LPS-induced Il-6 response
endothelial cell activation (sVCAM) ([10]; mice with SCD, PBS, AUY922, LPS or LPS+AUY): blocks endothelial cell activation
HSP70/GAPDH pharmacodynamic response ([10]; mice, AUY922 25 mg/Kg B.W. daily for four days, with or without LPS 0.1 μg/g B.W.): meets pharmacodynamic requirements

CC(C)c1cc(-c2n[nH]c(=O)n2-c2ccc3c(ccn3C)c2)c(O)cc1O [Ganetespib]
cardiac or liver toxicity [11]: no evidence of cardiac or liver toxicity
Hsp70 expression [12]: induces the overexpression of Hsp70

C=CCNc1c(O)cc2c(O)c1C[C@@H](C)C[C@H](OC)[C@H](O)[C@@H](C)/C=C(\C)[C@H](OC(N)=O)[C@@H](OC)/C=C\C=C(/C)C(=O)N2.Cl [IPI-504, Retaspimycin hydrochloride]
bioavailability [5]: excellent bioavailability
water solubility [6]: water-soluble
